According to patent US10000471B2, “Pyrazole P38 map kinase inhibitors” (Respivert Limited, priority 2010, dated 2018):
Like-named read-outs stand apart in the source and are kept apart here.

Tests used:
p38 MAPKγ (MAPK12) = target: T1, p38 MAPKγ (MAPK12) (Homo sapiens, UniProt P53778); assay: Enzyme inhibition assay (FRET, Z-LYTE), p38 MAPKγ; assay type: biochemical; settings: read-out: Enzyme Inhibition IC50 p38γ
T1 construct: purchased Invitrogen
T1 sequence (P53778 1-367): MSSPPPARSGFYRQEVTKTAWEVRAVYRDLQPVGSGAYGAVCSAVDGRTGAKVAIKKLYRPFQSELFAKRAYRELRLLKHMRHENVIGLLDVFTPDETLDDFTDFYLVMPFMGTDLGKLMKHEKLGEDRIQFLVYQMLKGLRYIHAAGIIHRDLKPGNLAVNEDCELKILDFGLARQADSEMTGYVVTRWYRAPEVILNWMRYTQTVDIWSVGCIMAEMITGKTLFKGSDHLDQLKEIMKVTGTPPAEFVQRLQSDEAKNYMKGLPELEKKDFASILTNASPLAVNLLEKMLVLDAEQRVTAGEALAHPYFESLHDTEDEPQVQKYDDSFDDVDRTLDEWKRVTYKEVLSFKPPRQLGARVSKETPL
Outline: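 Recombinant phosphorylated p38 MAPKγ preincubated 2 h at RT with compound in HEPES buffer, then 2 μM FRET peptide and 100 μM ATP added for 1 h; protease development 1 h. Coumarin/fluorescein emission ratio gave phosphorylation; IC50 from concentration-response versus uninhibited control.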

[1] = target: T2, p38 MAPKα isoform (MAPK14) (Homo sapiens, UniProt Q16539); assay: Enzyme inhibition assay (FRET, Z-LYTE), p38 MAPKα via MAPKAP-K2 activation; assay type: biochemical; settings: read-out: Enzyme Inhibition IC50 p38α
T2 construct: purchased Invitrogen
Outline: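 Recombinant p38 MAPKα was preincubated with compound for 2 h at RT. Its activity was measured indirectly through activation/phosphorylation of downstream MAPKAP-K2, with a Z-LYTE FRET peptide read-out (coumarin/fluorescein ratio) after a 1 h development step. IC50 came from concentration-response curves of percent inhibition versus an uninhibited control.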

[2] = system: IL-8 release in d-U937 cells; assay: LPS-induced IL-8 release in d-U937 cells; assay type: cell-based, human
Outline: (§1)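 PMA-differentiated (100 ng/ml, 48–72 hr) U937 macrophage-type cells pre-incubated 2 hr with compound, then stimulated 4 hr with 0.1 μg/mL E. coli O111:B4 LPS; supernatant TNFα and IL-8 measured by sandwich ELISA. TNFα inhibition expressed relative to 10 μg/mL BIRB796, giving REC50; IL-8 inhibition versus vehicle, giving IC50.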

[3] = system: TNFα release in d-U937 cells; assay: LPS-induced TNFα release in d-U937 cells; assay type: cell-based, human
Outline: as §1

[4] = system: Differentiated U937 cells; assay: Cell viability MTT assay; assay type: cell-based, human; settings: negative = apparent increase in viability; for MTT Assay (Viability) 4 h d-U937, percentage loss of cell viability: 4 hr in 5% FCS; for MTT Assay (Viability) 24 h d-U937, percentage loss of cell viability: 24 h in 10% FCS
Outline: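 Differentiated U937 cells pre-incubated with compound either 4 hr in 5% FCS or 24 h in 10% FCS, then 1 hr MTT. Formazan dissolved in DMSO, absorbance at 550 nm. Percentage viability loss relative to 0.5% DMSO vehicle; apparent increases appear as negative percentages.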

[5] = system: TNFα release in THP-1 cells; assay: LPS-induced TNFα release in THP-1 cells; assay type: cell-based, human
Outline: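 Human monocytic THP-1 cells stimulated with 3 μg/mL E. coli LPS for 4 hr; supernatant TNFα measured by sandwich ELISA. Inhibition at each concentration versus vehicle control, IC50 from concentration-response curve.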

[6] = system: ICAM-1 induction in BEAS2B cells; assay: Poly I:C-induced ICAM-1 induction in BEAS2B cells; assay type: cell-based, human; settings: read-out: PolyIC/ICAM1 IC50 BEAS2B
Outline: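 Human bronchial epithelial BEAS2B cells were pre-incubated with compound for 2 hr, then transfected with 1 μg/mL poly I:C. After 18 hr, surface ICAM-1 was measured by cell-based ELISA (OD450-655) and normalized to crystal violet cell counts (OD595). IC50 came from inhibition versus vehicle across the concentration-response curve.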

[7] = Homo sapiens, dU937, relative to 10 μg/mL BIRB796, read-out: LPS/TNFα REC50 d-U937

T2 sequence (Q16539 whole entry, canonical isoform): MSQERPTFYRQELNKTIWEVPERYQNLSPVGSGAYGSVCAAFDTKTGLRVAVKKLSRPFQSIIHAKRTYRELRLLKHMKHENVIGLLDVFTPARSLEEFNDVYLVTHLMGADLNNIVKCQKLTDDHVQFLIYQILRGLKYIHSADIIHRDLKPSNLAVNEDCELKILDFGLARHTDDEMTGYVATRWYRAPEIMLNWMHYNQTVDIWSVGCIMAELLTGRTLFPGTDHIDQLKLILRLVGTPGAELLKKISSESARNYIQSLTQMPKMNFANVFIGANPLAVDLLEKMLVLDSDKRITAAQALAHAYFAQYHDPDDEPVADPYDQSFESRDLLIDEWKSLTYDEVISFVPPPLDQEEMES

SMILES	IC50 (p38 MAPKγ (MAPK12)) [nM]	IC50 [1] [nM]	IC50 ([2]; Homo sapiens, dU937) [nM]	EC50 [3, 7] [nM]	IC50 ([5]; Homo sapiens) [nM]	IC50 [2] [nM]	EC50 ([3]; relative to 10 μg/mL BIRB796, read-out: LPS/TNFα REC50 d-U937) [nM]	IC50 [5] [nM]	MTT Assay (Viability) 4 h d-U937, percentage loss of cell viability [4] [%]	MTT Assay (Viability) 24 h d-U937, percentage loss of cell viability [4] [%]	IC50 ([6]; Homo sapiens, BEAS-2B) [nM]	IC50 [6] [nM]
CNC(=O)Nc1cc(Oc2ccc(NC(=O)Nc3cc(C(C)(C)C)nn3-c3ccc(C(=O)O)cc3)c(Cl)c2Cl)ccn1 [Example 60, 4-(3-tert-butyl-5-(3-(2,3-dichloro-4-(2-(3-methylureido)pyridin-4-yloxy)phenyl)ureido)-1H-pyrazol-1-yl)benzoic acid]	12.9	10.3	23.5	9.2	22.7				−15.4	−52.4	> 163	
CSc1ccc(-n2nc(C(C)(C)C)cc2NC(=O)Nc2ccc(Oc3ccnc(NC(=O)N4CCCC4)c3)c(Cl)c2Cl)cc1 [Example 10, N-(4-(4-(3-(3-tert-Butyl-1-(4-(methylthio)phenyl)-1H-pyrazol-5-yl)ureido)-2,3-dichlorophenoxy)pyridin-2-yl)pyrrolidine-1-carboxamide]	184	36.7	1.2	0.8	0.4				−18.7	17.0	1.7	
COCC(=O)Nc1cc(Oc2ccc(NC(=O)Nc3cc(C(C)(C)C)nn3-c3ccc(C)cc3)cc2C#N)ccn1 [Example 28, N-(4-(4-(3-(3-tert-butyl-1-p-tolyl-1H-pyrazol-5-yl)ureido)-2-cyanophenoxy)pyridin-2-yl)-2-methoxyacetamide]	30.1	48.3	7	2.7	3.2				−3.8	71.0	11.6	
COc1ccc(-n2nc(C(C)(C)C)cc2NC(=O)Nc2ccc(Oc3ccnc(NC(=O)NC4CC4)c3)c(Cl)c2Cl)cc1 [Example 65, 1-(4-(4-(3-(3-tert-butyl-1-(4-methoxyphenyl)-1H-pyrazol-5-yl)ureido)-2,3-dichlorophenoxy)pyridin-2-yl)-3-cyclopropylurea]	122	37.7	3.8	2	2.7				−4.7	20.2	17.5	
CNC(=O)Nc1cc(Oc2ccc(NC(=O)Nc3cc(C(C)(C)C)nn3-c3ccc(O)cc3)c(Cl)c2Cl)ccn1 [Example 51, 1-(3-tert-butyl-1-(4-hydroxyphenyl)-1H-pyrazol-5-yl)-3-(2,3-dichloro-4-(2-(3-methylureido)pyridin-4-yloxy)phenyl)urea]	174	34.2	6.8	1.2	0.7				−17.3	57.3	0.7	
COc1ccc(-n2nc(C(C)(C)C)cc2NC(=O)Nc2ccc(Oc3ccnc(NC(=O)N(C)C)c3)c(Cl)c2Cl)cc1 [Example 64, 3-(4-(4-(3-(3-tert-butyl-1-(4-methoxyphenyl)-1H-pyrazol-5-yl)ureido)-2,3-dichlorophenoxy)pyridin-2-yl)-1,1-dimethylurea]	58	13.3	15.1	0.3	0.4				−37.2	37.2	1.5	

Now from value to molecule, other results behind:

IC50 (p38 MAPKγ (MAPK12)) [nM]	IC50 [1] [nM]	IC50 ([2]; Homo sapiens, dU937) [nM]	EC50 [3, 7] [nM]	IC50 ([5]; Homo sapiens) [nM]	IC50 [2] [nM]	EC50 ([3]; relative to 10 μg/mL BIRB796, read-out: LPS/TNFα REC50 d-U937) [nM]	IC50 [5] [nM]	SMILES	MTT Assay (Viability) 4 h d-U937, percentage loss of cell viability [4] [%]	MTT Assay (Viability) 24 h d-U937, percentage loss of cell viability [4] [%]	IC50 ([6]; Homo sapiens, BEAS-2B) [nM]	IC50 [6] [nM]
203	33.2	0.1	0.1	1.4				CNC(=O)Nc1cc(Oc2ccc(NC(=O)Nc3cc(C(C)(C)C)nn3-c3ccc(OC)cc3)c(Cl)c2Cl)ncn1 [Example 97, 1-(3-tert-butyl-1-(4-methoxyphenyl)-1H-pyrazol-5-yl)-3-(2,3-dichloro-4-(6-(3-methylureido)pyrimidin-4-yloxy)phenyl) urea]	−27.2	32.9	1.2	
140	44.1	4.8	4.7	3.5				CNC(=O)Nc1cc(COc2ccc(NC(=O)Nc3cc(C(C)(C)C)nn3-c3ccc(C)cc3)c(Cl)c2Cl)ccn1 [Example 102, 1-(4-((4-(3-(3-tert-butyl-1-p-tolyl-1H-pyrazol-5-yl)ureido)-2,3-dichlorophenoxy)methyl)pyridin-2-yl)-3-methylurea]	−14.1	8.8	25.4	
58.5	7.7				4.9	0.8	1.1	COc1ccc(-n2nc(C(C)(C)C)cc2NC(=O)Nc2ccc(Oc3ccnc(NC(=O)N4CC[C@@H](N(C)C)C4)c3)c(Cl)c2Cl)cc1 [Example 81, (R)-N-(4-(4-(3-(3-tert-butyl-1-(4-methoxyphenyl)-1H-pyrazol-5-yl)ureido)-2,3-dichlorophenoxy)pyridin-2-yl)-3-(dimethylamino) pyrrolidine-1-carboxamide]	−8.7	33.3		14
19.8	6.7	34	1.7	0.7				CN(C)[C@H]1CCN(C(=O)Nc2cc(Oc3ccc(NC(=O)Nc4cc(C(C)(C)C)nn4-c4ccc(CO)cc4)c(Cl)c3Cl)ccn2)C1 [Example 83, (S)-N-(4-(4-(3-(3-tert-butyl-1-(4-hydroxymethylphenyl)-1H-pyrazol-5-yl)ureido)-2,3-dichlorophenoxy)pyridin-2-yl)-3-(dimethyl-amino)pyrrolidine-1-carboxamide]	−9.9	34.3	2.4	
160	8.9	19.2	1.3	0.8				COCC(=O)Nc1cc(Oc2ccc(NC(=O)Nc3cc(C(C)(C)C)nn3-c3ccc(CO)cc3)c(Cl)c2Cl)ncn1 [Example 93, N-(6-(4-(3-(3-tert-butyl-1-(4-hydroxymethylphenyl)-1H-pyrazol-5-yl)ureido)-2,3-dichlorophenoxy)pyrimidin-4-yl)-2-methoxyacetamide]	−1.4	91.5	0.5	
243	151	1.9	1.7	12.8				CNC(=O)Nc1cc(Oc2ccc(NC(=O)Nc3cc(C4(C)CCCCC4)nn3-c3ccc(C)cc3)c(Cl)c2Cl)ccn1 [Example 73, 1-(3-(1-methylcyclohexyl)-1-p-tolyl-1H-pyrazol-5-yl)-3-(2,3-dichloro-4-(2-(3-methylureido)pyridin-4-yloxy)phenyl)urea]	−27.3	12.3	1300	
